Measurements from the NIST ThermoML archive (doi:10.1016/j.jct.2006.04.007).

Assay: mn = molality of the nth substance listed, in mol/kg
Details: 350 kPa, Liquid; for apparent molar heat capacity: Extra sensitive DSC

CNC(C)=O [N-methylacetamide] + O
Details | apparent molar heat capacity [J/K/mol] | mass density [kg/m3]
328.15 K, m1 = 0.2002 | – | 985.56
328.15 K, m1 = 0.4 | – | 985.32
328.15 K, m1 = 0.599 | – | 985.18
328.15 K, m1 = 0.8028 | – | 985.04
328.15 K, m1 = 1 | – | 984.85
333.15 K, m1 = 0.015 | 260 | –
333.15 K, m1 = 0.04 | 265.7 | –
333.15 K, m1 = 0.07 | 267 | –
333.15 K, m1 = 0.1001 | 271.2 | –
333.15 K, m1 = 0.2002 | 271 | –
333.15 K, m1 = 0.4 | 267.55 | –
333.15 K, m1 = 0.599 | 274.8 | –
333.15 K, m1 = 0.8028 | 266.47 | –
333.15 K, m1 = 1 | 265.86 | –
338.15 K, m1 = 0.015 | 264 | –
338.15 K, m1 = 0.04 | 266.3 | –
338.15 K, m1 = 0.07 | 269.1 | –
338.15 K, m1 = 0.1001 | 272.8 | –
338.15 K, m1 = 0.2002 | 272.4 | –
338.15 K, m1 = 0.4 | 269.46 | –
338.15 K, m1 = 0.599 | 276.4 | –
338.15 K, m1 = 0.8028 | 268.26 | –
338.15 K, m1 = 1 | 267.6 | –
343.15 K, m1 = 0.015 | 268 | –
343.15 K, m1 = 0.04 | 267.1 | –
343.15 K, m1 = 0.07 | 270.8 | –
343.15 K, m1 = 0.1001 | 274.1 | –
343.15 K, m1 = 0.2002 | 273.7 | –
343.15 K, m1 = 0.4 | 271.09 | –
343.15 K, m1 = 0.599 | 277.9 | –
343.15 K, m1 = 0.8028 | 269.89 | –
343.15 K, m1 = 1 | 269.2 | –
348.15 K, m1 = 0.015 | 271 | 974.89
348.15 K, m1 = 0.04 | 268.3 | 974.87
348.15 K, m1 = 0.07 | 272.5 | 974.87
348.15 K, m1 = 0.1001 | 275.2 | 974.82
348.15 K, m1 = 0.2002 | 274.9 | 974.63
348.15 K, m1 = 0.4 | 272.57 | 974.29
348.15 K, m1 = 0.599 | 279.4 | 974.05
348.15 K, m1 = 0.8028 | 271.43 | 973.79
348.15 K, m1 = 1 | 270.73 | 973.51
353.15 K, m1 = 0.015 | 273 | –
353.15 K, m1 = 0.04 | 269.5 | –
353.15 K, m1 = 0.07 | 274 | –
353.15 K, m1 = 0.1001 | 276.3 | –
353.15 K, m1 = 0.2002 | 276 | –
353.15 K, m1 = 0.4 | 273.95 | –
353.15 K, m1 = 0.599 | 280.7 | –
353.15 K, m1 = 0.8028 | 272.85 | –
353.15 K, m1 = 1 | 272.12 | –
358.15 K, m1 = 0.015 | 274 | 968.67
358.15 K, m1 = 0.04 | 270.2 | 968.65
358.15 K, m1 = 0.07 | 275.5 | 968.63
358.15 K, m1 = 0.1001 | 277.5 | 968.56
358.15 K, m1 = 0.2002 | 277.2 | 968.36
358.15 K, m1 = 0.4 | 275.31 | 967.97
358.15 K, m1 = 0.599 | 281.9 | 967.67
358.15 K, m1 = 0.8028 | 274.18 | 967.36
358.15 K, m1 = 1 | 273.45 | 967.06
363.15 K, m1 = 0.015 | 276 | –
363.15 K, m1 = 0.04 | 270.5 | –
363.15 K, m1 = 0.07 | 277.1 | –
363.15 K, m1 = 0.1001 | 278.7 | –
363.15 K, m1 = 0.2002 | 278.5 | –
363.15 K, m1 = 0.4 | 276.62 | –
363.15 K, m1 = 0.599 | 283.1 | –
363.15 K, m1 = 0.8028 | 275.42 | –
363.15 K, m1 = 1 | 274.69 | –
368.15 K, m1 = 0.015 | 277 | 961.97
368.15 K, m1 = 0.04 | 270.9 | 961.92
368.15 K, m1 = 0.07 | 278.3 | 961.9
368.15 K, m1 = 0.1001 | 279.7 | 961.83
368.15 K, m1 = 0.2002 | 279.5 | 961.62
368.15 K, m1 = 0.4 | 277.76 | 961.19
368.15 K, m1 = 0.599 | 284.1 | 960.81
368.15 K, m1 = 0.8028 | 276.51 | 960.43
368.15 K, m1 = 1 | 275.75 | 960.09
373.15 K, m1 = 0.015 | 277 | –
373.15 K, m1 = 0.04 | 270.8 | –
373.15 K, m1 = 0.07 | 279.3 | –
373.15 K, m1 = 0.1001 | 280.7 | –
373.15 K, m1 = 0.2002 | 280.5 | –
373.15 K, m1 = 0.4 | 278.82 | –
373.15 K, m1 = 0.599 | 285.12 | –
373.15 K, m1 = 0.8028 | 277.53 | –
373.15 K, m1 = 1 | 276.77 | –
378.15 K, m1 = 0.015 | 275 | –
378.15 K, m1 = 0.04 | 270.6 | –
378.15 K, m1 = 0.07 | 280 | –
378.15 K, m1 = 0.1001 | 281.5 | –
378.15 K, m1 = 0.2002 | 281.4 | –
378.15 K, m1 = 0.4 | 279.75 | –
378.15 K, m1 = 0.599 | 286.01 | –
378.15 K, m1 = 0.8028 | 278.43 | –
378.15 K, m1 = 1 | 277.65 | –
383.15 K, m1 = 0.015 | 273 | –
383.15 K, m1 = 0.04 | 270.2 | –
383.15 K, m1 = 0.07 | 280.4 | –
383.15 K, m1 = 0.1001 | 282.2 | –
383.15 K, m1 = 0.2002 | 282.2 | –
383.15 K, m1 = 0.4 | 280.52 | –
383.15 K, m1 = 0.599 | 286.77 | –
383.15 K, m1 = 0.8028 | 279.21 | –
383.15 K, m1 = 1 | 278.41 | –
388.15 K, m1 = 0.015 | 273 | –
388.15 K, m1 = 0.04 | 270.5 | –
388.15 K, m1 = 0.07 | 281.2 | –
388.15 K, m1 = 0.1001 | 282.6 | –
388.15 K, m1 = 0.2002 | 282.8 | –
388.15 K, m1 = 0.4 | 281.15 | –
388.15 K, m1 = 0.599 | 287.45 | –
388.15 K, m1 = 0.8028 | 279.89 | –
388.15 K, m1 = 1 | 279.13 | –
393.15 K, m1 = 0.015 | 278 | –
393.15 K, m1 = 0.04 | 273.2 | –
393.15 K, m1 = 0.07 | 282.4 | –
393.15 K, m1 = 0.1001 | 281.9 | –
393.15 K, m1 = 0.2002 | 282.8 | –
393.15 K, m1 = 0.4 | 281.41 | –
393.15 K, m1 = 0.599 | 287.87 | –
393.15 K, m1 = 0.8028 | 280.37 | –
393.15 K, m1 = 1 | 279.71 | –
